From ChEMBL document CHEMBL1201862, “PubChem BioAssay data set” (2004)
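Test compounds were applied to cells in 96-well plates for 48 hours at 5 doses. GI50 = concentration required for 50% inhibition of growth.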 Calls of active or inactive are those of the source. Rule as the data show it: active = GI50 up to about 1.1 µM and inactive = higher.

Columns and labels:
Experiment in all cases: inhibition of tumour cell growth, NCI panel, 48 h
MDA-N = test system: MDA-N
NCI/ADR-RES = test system: NCI/ADR-RES
HOP-18 = test system: HOP-18
DMS-114 = test system: DMS-114
DMS-273 = test system: DMS-273
DLD-1 = test system: DLD-1
SNB-78 = test system: SNB-78
M19-MEL = test system: M19-MEL

O=C1CCC2c3ccccc3NCN12 (stereo not drawn)
GI50 (MDA-N): > 100 µM (inactive)
GI50 (NCI/ADR-RES): > 100 µM (inactive)

COC(=O)CCC(=O)N1C/C(=C\c2ccccc2)C(=O)/C(=C/c2ccccc2)C1
GI50 (HOP-18): 2.34 µM (inactive)
GI50 (DMS-114): 1.73 µM (inactive)
GI50 (DMS-273): 0.708 µM (active)
GI50 (DLD-1): 2.04 µM (inactive)
GI50 (SNB-78): 2.77 µM (inactive)
GI50 (M19-MEL): 2.39 µM (inactive)

Nc1ncnc2nc(N3CCN(CCO)CC3)[nH]c12
GI50 (MDA-N): > 100 µM (inactive)
GI50 (NCI/ADR-RES): > 100 µM (inactive)

Cn1nc(-c2ccccc2NC(=O)C(F)(F)F)c(=O)n(C)c1=S
GI50 (DMS-114): 14 µM (inactive)
GI50 (DMS-273): 24.4 µM (inactive)
GI50 (DLD-1): > 100 µM (inactive)
GI50 (M19-MEL): 18.9 µM (inactive)

COc1nc2c(c(=O)n1C)NC(C(O)C(O)CO)C=N2 (stereo not drawn)
GI50 (MDA-N): > 10 µM (inactive)
GI50 (NCI/ADR-RES): > 10 µM (inactive)

O=C(N/N=C/c1ccc(Br)cc1)N/N=C/c1ccc(Br)cc1
GI50 (MDA-N): 10.2 µM (inactive)
GI50 (NCI/ADR-RES): 5.6 µM (inactive)

Cc1ccc(C(=O)Nc2ccc(CP(=O)(O)O)cc2CP(=O)(O)O)cc1NC(=O)c1cccc(N)c1
GI50 (MDA-N): > 100 µM (inactive)
GI50 (NCI/ADR-RES): > 100 µM (inactive)

O=C1Cc2c(-c3cccs3)cc(-c3ccccc3)nc2-c2ccccc2N1
GI50 (MDA-N): 21.8 µM (inactive)
GI50 (NCI/ADR-RES): 18.5 µM (inactive)

COc1ccc(Cl)cc1NC(=O)c1cccc([N+](=O)[O-])c1O
GI50 (HOP-18): 2.51 µM (inactive)
GI50 (MDA-N): 19.8 µM (inactive)
GI50 (DLD-1): 8.95 µM (inactive)
GI50 (SNB-78): 19.4 µM (inactive)
GI50 (M19-MEL): 9.79 µM (inactive)
GI50 (NCI/ADR-RES): 10 µM (inactive)

CCC(C)c1cnc(CC(C)C)c(=O)[nH]1 (stereo not drawn)
GI50 (MDA-N): > 100 µM (inactive)

Cc1coc2c1C(=O)C(=O)c1c-2ccc2c1CCCC2(C)C [TANSHINONE IIA]
GI50 (MDA-N): 1.37 µM (inactive)
GI50 (NCI/ADR-RES): 4.58 µM (inactive)

COc1ccc(/C=N/n2c(-c3ccccc3)n[nH]c2=O)c(OC)c1
GI50 (MDA-N): > 100 µM (inactive)
GI50 (NCI/ADR-RES): 29.2 µM (inactive)

CCc1[nH]nc(C(N)=O)c1/N=N/N(C)C
GI50 (MDA-N): > 100 µM (inactive)
GI50 (NCI/ADR-RES): 94.8 µM (inactive)

O=C(Cc1ccccc1)N/N=C(/CCN1CCCC1)CC(c1ccccc1)c1c(O)c2ccccc2oc1=O (stereo not drawn)
GI50 (MDA-N): > 100 µM (inactive)
GI50 (NCI/ADR-RES): 55.8 µM (inactive)

COC(=O)C1=C(OC(=O)/C(=C/c2ccccc2)c2ccccc2)C(C(=O)OC)[C@@]2(O)[C@@H](C(=O)OC)[C@H](C)C[C@@H]1[C@@H]2C(=O)OC (stereo partly drawn)
GI50 (NCI/ADR-RES): > 100 µM (inactive)

NC(=O)/C=C/C(=O)O
GI50 (HOP-18): > 5000 µM (inactive)
GI50 (DMS-114): > 5000 µM (inactive)
GI50 (DMS-273): > 5000 µM (inactive)
GI50 (DLD-1): > 5000 µM (inactive)
GI50 (SNB-78): > 5000 µM (inactive)
GI50 (M19-MEL): > 5000 µM (inactive)

COC(=O)c1sc(=S)sc1SCc1ccccc1CSc1sc(=S)sc1C(=O)OC
GI50 (MDA-N): > 100 µM (inactive)
GI50 (NCI/ADR-RES): > 100 µM (inactive)

COc1ccc(-c2cc(O)c3cc4c(cc3n2)OCO4)cc1OC
GI50 (HOP-18): > 100 µM (inactive)
GI50 (DMS-114): > 100 µM (inactive)
GI50 (DMS-273): > 100 µM (inactive)
GI50 (DLD-1): > 100 µM (inactive)
GI50 (SNB-78): > 100 µM (inactive)
GI50 (M19-MEL): > 100 µM (inactive)

C/C(=N\Nc1nc2ccccc2s1)c1ccncn1
GI50 (MDA-N): 9.44 µM (inactive)
GI50 (NCI/ADR-RES): 0.351 µM (active)

C/C=C/C(C#N)(/C=C/c1ccccc1)OP1(=O)OC(c2ccccc2)C(C)N1C (stereo not drawn)
GI50 (MDA-N): 20.3 µM (inactive)

CCCCCCC1OC23OC1CCC2C(O)CCC3O (stereo not drawn)
GI50 (NCI/ADR-RES): > 100 µM (inactive)

O=[N+]([O-])c1ccc(-c2cnc3ccccn23)cc1
GI50 (DMS-114): 48.6 µM (inactive)
GI50 (DMS-273): > 100 µM (inactive)
GI50 (SNB-78): > 100 µM (inactive)
GI50 (M19-MEL): > 100 µM (inactive)

COc1ccc(NC(=O)CSc2nnc(-c3ccc(NC(C)=O)cc3)o2)cc1
GI50 (HOP-18): 19.9 µM (inactive)
GI50 (DMS-114): 5.6 µM (inactive)
GI50 (DMS-273): 19.3 µM (inactive)
GI50 (DLD-1): 19.3 µM (inactive)
GI50 (SNB-78): 13.8 µM (inactive)
GI50 (M19-MEL): 21 µM (inactive)

C[N+](C)(C)CC(=O)N/N=C/c1oc(-c2c(O)ccc3ccccc23)c(-c2c(O)ccc3ccccc23)c1[N+](=O)[O-]
GI50 (HOP-18): 15.9 µM (inactive)
GI50 (DLD-1): 14.1 µM (inactive)
GI50 (M19-MEL): 20.4 µM (inactive)

CN(C)CCCOc1nc2c(c(=O)n(C)c(=O)n2C)n1C.SC1=NC=NC2=NC=NC12
GI50 (NCI/ADR-RES): 4.32 µM (inactive)

O=C1CC2(CCCc3sccc32)C(=O)N1 (stereo not drawn)
GI50 (MDA-N): > 100 µM (inactive)
GI50 (NCI/ADR-RES): > 100 µM (inactive)

N[C@H](C(=O)O)[C@@H]1CC(Br)=NO1
GI50 (MDA-N): 8.41 µM (inactive)
GI50 (NCI/ADR-RES): 39.7 µM (inactive)

Cc1c(C(=O)O)n(C)c(=O)n(C)c1=O
GI50 (HOP-18): > 100 µM (inactive)
GI50 (DMS-273): > 100 µM (inactive)
GI50 (DLD-1): > 100 µM (inactive)
GI50 (M19-MEL): > 100 µM (inactive)

O=C(c1cc(Br)ccc1O)c1cc(Br)ccc1O
GI50 (MDA-N): 14.3 µM (inactive)
GI50 (NCI/ADR-RES): 18.8 µM (inactive)

Cc1ccc(-n2c(C)nc3c2C(=O)c2ccccc2C3=O)cc1
GI50 (DMS-273): 9.86 µM (inactive)
GI50 (DLD-1): 9.33 µM (inactive)
GI50 (SNB-78): > 100 µM (inactive)
GI50 (M19-MEL): 12 µM (inactive)

CC(C)(C)OC(=O)N1C(OP(=O)(Oc2ccccc2)Oc2ccccc2)=CSc2ccccc21
GI50 (MDA-N): 34 µM (inactive)
GI50 (NCI/ADR-RES): 43.2 µM (inactive)

CC(NNC(=O)CC(=O)N(C(=O)c1ccccc1)c1ccc(Cl)cc1)c1cc2ccccc2oc1=O (stereo not drawn)
GI50 (MDA-N): > 10 µM (inactive)
GI50 (NCI/ADR-RES): > 10 µM (inactive)
